From paper PMC8151276, “An Integrated Approach toward NanoBRET Tracers for Analysis of GPCR Ligand Engagement” (Molecules, 2021)

Target: T1, GRM8 (Homo sapiens, UniProt O00222)
T1 construct: purchased Promega (in-house HiBiT-GPCR construct library, NanoBRET)
Test: NanoBRET screen HiBiT-GRM8 in HEK293
Format: binding
Method: Each tracer candidate was screened across the entire library of HiBiT-GPCR constructs using NanoBRET as the detection modality. As depicted in Figure 4A, the specificity of interactions was evaluated through decrease in BRET due to competitive displacement of a bound tracer by excess parental compound. Each tracer was analyzed for binding to each HiBiT-GPCR fusion in the absence and in the presence of competing parental compound. Briefly, HEK293 cells were transfected with HiBiT-GPCR constructs diluted into promoterless DNA to reduce expression and maximize translocation to the cell surface. Each tracer candidate was then screened at concentrations of 1 μM and 0.1 μM across cells expressing these fusions. Cells were treated for 1.5 h with tracer either alone or in the presence of 20 μM competing parental compound (i.e., control). BRET was measured upon addition of purified LgBiT and subsequent complementation with HiBiT genetically fused to a GPCR. The specificity of interactions was assessed through a decrease in BRET signal due to competitive displacement of the bound tracer. To further gauge the robustness of these interactions, the fold response over the control (i.e., BRETtracer/BRETcontrol) was calculated. We chose a 1.5-fold response, which translates to ≥7-fold signal over noise as the minimal threshold required to score an interaction as positive. […]. Below we highlight the screening results obtained for our exemplary fluorescent tracers based on Clozapine, Amitriptyline and AZD1283.
HiBiT-GPCR DNA constructs were diluted in 10 mM Tris pH 8 to a final concentration of 0.01 μg/μL, arrayed in 96-well plates and stored at −20 °C. For transfection, HEK293 cells were suspended in Opti-MEM (without phenol red) supplemented with 2% fetal bovine serum (Seradigm) and 100 units/mL penicillin–streptomycin (Gibco) at a final concentration of 220,000 cells/mL and dispensed into white 96-well plates at 90 μL/well. Subsequent transfections and screens were carried using an Agilent Bravo Automated Liquid Handling Platform. First, the 96-well HiBiT DNA arrays were diluted 25-fold in Opti-MEM (without serum or phenol red) to a final concentration of 0.0004 μg/μL and 20 μL of the diluted DNAs were transferred into new 96-well plates. Next, promoterless carrier DNA (1 μg/μL) was diluted 25-fold (0.04 μg/μL) and then dispensed into the diluted arrays at 20 μL/well. Following brief mixing, Viafect transfection reagent (Promega) diluted 16-fold into Opti-MEM was dispensed into the plates at 40 μL/well. After mixing by pipetting, plates were incubated for 10 min on the pipetting station deck. The DNA-transfection reagent complexes were then added to plates containing cells. To facilitate the screen, 10 μL of DNA-transfection reagent complexes were added in duplicates to the top 4 and bottom 4 rows, resulting in two identical 48-well arrays per plate. Plates with transfected cells were incubated for 18–20 h at 37 °C/5% CO2. A screen of each tracer across the entire library using two different concentrations requires duplicate plates of transfected cells. Depending on the number of tracers being screened, transfections can be scaled up using the same ratios. The next day, for each tracer, four 20× screening solutions in tracer dilution buffer (Promega) were prepared: two duplicates at final concentration of 20 μM and two duplicates at a final concentration of 2 μM. A competing unmodified compound was added to one of each duplicate at a final concentration of 400 μM. The four resulting solutions were diluted 4-fold in Opti-MEM without serum or phenol red to generate 5× solutions (5 µM and 0.5 µM tracer +/− 100 μM competing compound). To screen the library, a BioTek MultiFlo FX liquid dispenser was used to dispense 22.5 µL of tracer solution to the top 4 rows and 22.5 µL tracer + competing compound solution to the 4 bottom rows. Plates were briefly mixed on an orbital shaker and incubated for 1.5 h at room temperature. […]

T1 sequence (O00222 34-908): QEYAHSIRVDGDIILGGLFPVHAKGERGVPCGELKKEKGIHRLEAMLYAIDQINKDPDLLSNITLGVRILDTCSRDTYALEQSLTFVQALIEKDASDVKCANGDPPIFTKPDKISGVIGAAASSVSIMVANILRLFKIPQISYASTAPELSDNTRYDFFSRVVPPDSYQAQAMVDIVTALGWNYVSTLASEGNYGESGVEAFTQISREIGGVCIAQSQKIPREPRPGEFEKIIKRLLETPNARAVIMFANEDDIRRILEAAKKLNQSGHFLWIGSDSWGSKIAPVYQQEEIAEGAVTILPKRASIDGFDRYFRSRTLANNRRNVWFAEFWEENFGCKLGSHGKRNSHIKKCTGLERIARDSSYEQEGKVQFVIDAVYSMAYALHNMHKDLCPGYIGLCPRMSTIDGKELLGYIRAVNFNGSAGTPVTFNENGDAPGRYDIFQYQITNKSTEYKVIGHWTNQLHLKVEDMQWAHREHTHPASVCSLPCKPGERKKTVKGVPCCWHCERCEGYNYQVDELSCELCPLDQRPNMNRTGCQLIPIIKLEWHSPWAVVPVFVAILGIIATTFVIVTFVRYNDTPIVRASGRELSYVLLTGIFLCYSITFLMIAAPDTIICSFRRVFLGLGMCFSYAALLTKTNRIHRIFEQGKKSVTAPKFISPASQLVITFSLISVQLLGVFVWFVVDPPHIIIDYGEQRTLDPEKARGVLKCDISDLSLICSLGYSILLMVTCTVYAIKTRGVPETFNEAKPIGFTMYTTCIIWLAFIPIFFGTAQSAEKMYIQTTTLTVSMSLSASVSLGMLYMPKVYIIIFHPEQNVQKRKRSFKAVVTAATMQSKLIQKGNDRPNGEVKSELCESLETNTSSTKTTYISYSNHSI

| SMILES | NanoBRET Fold Response (GRM8, tracer 0.1μM) | NanoBRET Fold Response (GRM8, tracer 1μM) | further results |
| --- | --- | --- | --- |
| CCOC(=O)c1cc(C#N)c(N2CCC(C(=O)NS(=O)(=O)Cc3ccccc3/C=C/C(=O)NCCNC(=O)CCc3ccc4n3[B-](F)(F)[N+]3=C(c5ccc[nH]5)C=CC3=C4)CC2)nc1C [AZD1283-1-NB590] |  |  | NanoBRET Fold Response (GRM8, 0.1μM): 0.99; NanoBRET Fold Response (GRM8, 1μM): 1.01 |
| N#CN=C(NCCCOc1cccc(CN2CCCCC2)c1)NCCNC(=O)CCOCCOCCOCCOCCNC(=O)CCc1ccc2n1[B-](F)(F)[N+]1=C(c3ccc[nH]3)C=CC1=C2 [Aminopotentidine-2-NB590] | 1.01 | 0.99 |  |
| CN(C)CCC=C1c2ccccc2CCc2ccc(C(=O)NCCNC(=O)CCOCCOCCOCCOCCNC(=O)CCc3ccc4n3[B-](F)(F)[N+]3=C(c5ccc[nH]5)C=CC3=C4)cc21 [Amitriptyline-b-2-NB590] | 1.01 | 0.99 |  |
| COc1ccc2c(n1)c(CCNC(C)=O)cn2CCNC(=O)CCc1ccc2n1[B-](F)(F)[N+]1=C(c3ccc[nH]3)C=CC1=C2 [Azamelatonin-1-NB590] |  |  | NanoBRET Fold Response (0.1μM tracer): 0.96; NanoBRET Fold Response (1μM tracer): 0.95 |
| COc1ccc2[nH]c(-c3ccc(CNC(=O)CCOCCOCCOCCOCCNC(=O)CCc4ccc5n4[B-](F)(F)[N+]4=C(c6ccc[nH]6)C=CC4=C5)cc3)c(CCNC(C)=O)c2n1 [AzomelatoninICO9-2-NB590] |  |  | NanoBRET Fold Response (0.1μM tracer): 0.98; NanoBRET Fold Response (1μM tracer): 0.98 |
| O=C(CCOCCOCCOCCOCCNC(=O)CCc1ccc2n1[B-](F)(F)[N+]1=C(c3ccc[nH]3)C=CC1=C2)NCCCN1CCN(C2=Nc3cc(Cl)ccc3Nc3ccccc32)CC1 [Clozapine-a-2-NB590] |  |  | NanoBRET Fold Response (GRM8, 0.1μM tracer): 1.01; NanoBRET Fold Response (GRM8, 1μM tracer): 1.00 |
| CN1CCN(C2=Nc3cc(Cl)ccc3Nc3ccc(CNC(=O)CCOCCOCCOCCOCCNC(=O)CCc4ccc5n4[B-](F)(F)[N+]4=C(c6ccc[nH]6)C=CC4=C5)cc32)CC1 [Clozapine-b-2-NB590] |  |  | NanoBRET Fold Response (GRM8, 0.1μM tracer): 1.01; NanoBRET Fold Response (GRM8, 1μM tracer): 1.02 |
| CN1CCN(C2=Nc3cc(Cl)ccc3N(CC(=O)NCCOCCOCCOCCOCCNC(=O)CCc3ccc4n3[B-](F)(F)[N+]3=C(c5ccc[nH]5)C=CC3=C4)c3ccccc32)CC1 [Clozapine-c-2-NB590] |  |  | NanoBRET Fold Response (GRM8, 0.1μM tracer): 0.97; NanoBRET Fold Response (GRM8, 1μM tracer): 1.07 |
| O=C(CCOCCOCCOCCOCCNC(=O)CCc1ccc2n1[B-](F)(F)[N+]1=C(c3ccc[nH]3)C=CC1=C2)NCCCN1CCN(C2=Nc3ccccc3Oc3ccc(Cl)cc32)CC1 [Loxapine-a-2-NB590] | 1.01 | 1.07 |  |
| COc1ccccc1N1CCN(CCCCN2C(=O)c3ccc(CNC(=O)CCOCCOCCOCCOCCNC(=O)CCc4ccc5n4[B-](F)(F)[N+]4=C(c6ccc[nH]6)C=CC4=C5)cc3C2=O)CC1 [NAN-190-2-NB590] | 1.02 |  |  |
| COc1ccccc1N1CCN(CCCCN2C(=O)c3ccc(CNC(=O)CCOCCNC(=O)c4ccc(CNC(=O)CCc5ccc6n5[B-](F)(F)[N+]5=C(c7ccc[nH]7)C=CC5=C6)cc4)cc3C2=O)CC1 [NAN-190-3-NB590] | 1.21 | 0.96 |  |
| O=C(CCc1ccc2n1[B-](F)(F)[N+]1=C(c3ccc[nH]3)C=CC1=C2)NCc1ccc(C(=O)NCCOCCC(=O)N[C@@H]2CC[C@@]3(O)[C@H]4Cc5ccc(O)c6c5[C@@]3(CCN4CC3CC3)[C@H]2O6)cc1 [Naltrexone-3-NB590] | 1.07 | 0.93 |  |
| Cc1cc2c(s1)Nc1ccccc1N=C2N1CCN(CCCNC(=O)CCOCCOCCOCCOCCNC(=O)CCc2ccc3n2[B-](F)(F)[N+]2=C(c4ccc[nH]4)C=CC2=C3)CC1 [Olanzapine-a-2-NB590] | 0.97 | 1.04 |  |
| O=C(CCc1ccc2n1[B-](F)(F)[N+]1=C(c3ccc[nH]3)C=CC1=C2)NCc1ccc(C(=O)NCCOCCOCCNCC(O)COc2cccc3ccccc23)cc1 (stereo not shown) [Propranolol-3-NB590] |  |  | NanoBRET Fold Response (GRM8, 0.1μM): 0.99; NanoBRET Fold Response (GRM8, 1μM): 1.00 |
| O=C(CCc1ccc2n1[B-](F)(F)[N+]1=C(c3ccc[nH]3)C=CC1=C2)NCCOCCOCCNC(=O)OCCOCCN1CCN(C2=Nc3ccccc3Sc3ccccc32)CC1 [Quetiapine-a-2-NB590] | 0.98 | 1.00 |  |
| Cc1nc2n(c(=O)c1CCN1CCC(c3noc4cc(F)ccc34)CC1)CCCC2OC(=O)NCCOCCOCCOCCOCCNC(=O)CCc1ccc2n1[B-](F)(F)[N+]1=C(c3ccc[nH]3)C=CC1=C2 (stereo not shown) [Risperidone-2-NB590] | 1.00 | 1.04 |  |
| CC(C)N(CC[C@H](c1ccccc1)c1cc(CCNC(=O)CCOCCOCCOCCOCCNC(=O)CCc2ccc3n2[B-](F)(F)[N+]2=C(c4ccc[nH]4)C=CC2=C3)ccc1O)C(C)C [Tolterodine-2-NB590] | 1.00 | 1.31 |  |
| CC(C)N(CC[C@H](c1ccccc1)c1cc(CCNC(=O)c2ccc(CNC(=O)CCc3ccc4n3[B-](F)(F)[N+]3=C(c5ccc[nH]5)C=CC3=C4)cc2)ccc1O)C(C)C [Tolterodine-BZ-NB590] | 1.02 | 1.03 |  |
| CCCn1c(=O)c2[nH]c(-c3ccc(OCC(=O)NCCNC(=O)CCOCCNC(=O)c4ccc(CNC(=O)CCc5ccc6n5[B-](F)(F)[N+]5=C(c7ccc[nH]7)C=CC5=C6)cc4)cc3)nc2n(CCC)c1=O [XAC-3-NB590] | 0.99 | 1.04 |  |
